Results from patent US10517889B2, “Modulators of SMAD7 expression” (Ionis Pharmaceuticals, Inc., priority 2017, dated 2019).
Strand notation (5' to 3'): a small letter for the sugar, then the base; units joined by * are phosphorothioate-linked, units joined directly phosphodiester-linked; [ ] holds rarer units or linkages, { } end groups; capitals alone tell only the bases. k = constrained ethyl (cEt); [5mC] = 5-methylcytosine; d = 2'-deoxy (DNA)

system: human SMAD7 mRNA; assay: Antisense inhibition of human SMAD7 mRNA expression in Hep3B cells by 3-10-3 cEt gapmers, 10,000 nM, electroporation (Example 2); format: cell-based; conditions: Hep3B cells, electroporation with 10,000 nM antisense oligonucleotide, approximately 24 hours, RTS5062, percent inhibition of SMAD7 mRNA relative to untreated control cells
How it was run: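 Hep3B cells (20,000/well) were electroporated with 10,000 nM 3-10-3 cEt gapmer (16-mer, phosphorothioate, 5-methylcytosines) and harvested after about 24 h. SMAD7 mRNA quantified by RT-qPCR with primer probe set RTS5062, normalized to total RNA by RiboGreen; percent inhibition relative to untreated cells.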

Substance | % Inhibition [%]
799545 (kT*k[5mC]*k[5mC]*d[5mC]*dA*d[5mC]*d[5mC]*d[5mC]*dT*dG*dG*dT*dG*k[5mC]*kT*k[5mC]; antisense) [compound 799545] | 9
799546 (kT*kA*k[5mC]*dT*dG*dT*dT*dG*dG*d[5mC]*dA*dG*dT*kG*k[5mC]*kT; antisense) [compound 799546] | 48
799547 (kT*k[5mC]*k[5mC]*dT*dA*d[5mC]*dT*dG*dT*dT*dG*dG*d[5mC]*kA*kG*kT; antisense) [compound 799547] | 50
799548 (k[5mC]*kT*k[5mC]*d[5mC]*dT*dA*d[5mC]*dT*dG*dT*dT*dG*dG*k[5mC]*kA*kG; antisense) [compound 799548] | 39
799549 (kG*k[5mC]*kT*d[5mC]*d[5mC]*dT*dA*d[5mC]*dT*dG*dT*dT*dG*kG*k[5mC]*kA; antisense) [compound 799549] | 53
799550 (kA*kG*k[5mC]*dT*d[5mC]*d[5mC]*dT*dA*d[5mC]*dT*dG*dT*dT*kG*kG*k[5mC]; antisense) [compound 799550] | 50
799551 (kT*kT*kA*d[5mC]*dA*dG*d[5mC]*dT*d[5mC]*d[5mC]*dT*dA*d[5mC]*kT*kG*kT; antisense) [compound 799551] | 12
799552 (kA*kG*kG*dG*dA*dA*d[5mC]*dA*dA*dT*dT*dA*d[5mC]*kA*kG*k[5mC]; antisense) [compound 799552] | 58
799553 (k[5mC]*k[5mC]*k[5mC]*d[5mC]*dG*d[5mC]*dT*dA*dG*dG*dG*dA*dA*k[5mC]*kA*kA; antisense) [compound 799553] | 46
799567 (k[5mC]*kT*kT*dT*dG*dA*dG*dT*dA*dA*dA*d[5mC]*dA*kA*kT*kA; antisense) [compound 799567] | 15
799569 (k[5mC]*kT*k[5mC]*dT*dA*dG*dG*dT*d[5mC]*d[5mC]*d[5mC]*dT*d[5mC]*kT*kT*kT; antisense) [compound 799569] | 24
799570 (kA*kA*kA*dA*dG*dA*dT*dG*d[5mC]*dA*dG*dT*dT*k[5mC]*kA*k[5mC]; antisense) [compound 799570] | 39
799571 (k[5mC]*kA*kG*dA*dA*dA*dA*dG*dA*dT*dG*d[5mC]*dA*kG*kT*kT; antisense) [compound 799571] | 46
799573 (kA*kA*kT*dA*dA*dA*dA*d[5mC]*d[5mC]*dA*dT*d[5mC]*dT*kA*kA*k[5mC]; antisense) [compound 799573] | 0
799584 (kT*kA*kT*d[5mC]*dA*dA*dG*dA*dA*dG*dA*d[5mC]*dA*kA*kA*k[5mC]; antisense) [compound 799584] | 39
799585 (kA*kG*kA*d[5mC]*dA*dA*dG*dA*dT*dG*dT*dT*dA*kT*k[5mC]*kA; antisense) [compound 799585] | 34
799586 (kG*kA*kG*dG*dA*dG*dG*d[5mC]*dA*d[5mC]*dT*d[5mC]*dA*kG*kG*k[5mC]; antisense) [compound 799586] | 50
799587 (kT*kT*k[5mC]*dA*d[5mC]*dA*dG*dG*dT*d[5mC]*dA*d[5mC]*dA*kT*kG*kG; antisense) [compound 799587] | 42
799588 (kA*kA*kA*dA*dA*dG*d[5mC]*d[5mC]*d[5mC]*dA*d[5mC]*d[5mC]*d[5mC]*kA*kT*k[5mC]; antisense) [compound 799588] | 44
799590 (k[5mC]*kT*kG*d[5mC]*dA*dG*dT*d[5mC]*dT*dT*d[5mC]*dT*dG*kA*kA*kG; antisense) [compound 799590] | 9
799591 (kA*kT*kT*dA*dG*dT*dA*dA*dA*dT*d[5mC]*dA*dA*kG*kA*kG; antisense) [compound 799591] | 56
799592 (kG*kG*kA*dA*dT*dT*dA*dG*dT*dA*dA*dA*dT*k[5mC]*kA*kA; antisense) [compound 799592] | 47

same assay, conditions: Hep3B cells, electroporation, 10,000 nM antisense oligonucleotide, approximately 24 hours, RTS5062, relative to untreated control cells

Substance | % inhibition of SMAD7 mRNA expression [%]
799536 (kA*k[5mC]*k[5mC]*dG*dA*dT*dG*d[5mC]*dA*dT*d[5mC]*d[5mC]*dA*kA*k[5mC]*kT; antisense) [compound 799536] | 50
799537 (kG*kG*kG*d[5mC]*dA*d[5mC]*d[5mC]*dA*d[5mC]*dA*dA*dT*dG*kT*k[5mC]*kA; antisense) [compound 799537] | 3
799538 (kT*kG*k[5mC]*dA*dG*dG*dA*dT*dG*dA*dG*dG*dA*kG*k[5mC]*kT; antisense) [compound 799538] | 29
799539 (k[5mC]*k[5mC]*k[5mC]*dG*dT*d[5mC]*d[5mC]*dA*d[5mC]*dG*dG*dA*dA*k[5mC]*kG*kG; antisense) [compound 799539] | 41
799541 (kT*kT*kA*dA*dT*dG*dA*d[5mC]*dA*d[5mC]*d[5mC]*dA*dA*kA*kG*kT; antisense) [compound 799541] | 55
799542 (kG*kT*kT*dA*dA*dT*dG*dA*d[5mC]*dA*d[5mC]*d[5mC]*dA*kA*kA*kG; antisense) [compound 799542] | 30
799554 (kT*kA*k[5mC]*d[5mC]*dT*dG*dT*dG*dA*dG*d[5mC]*d[5mC]*d[5mC]*kT*kG*kA; antisense) [compound 799554] | 0
799555 (kT*kA*k[5mC]*d[5mC]*d[5mC]*d[5mC]*dG*dT*dG*d[5mC]*d[5mC]*dT*dG*kT*k[5mC]*kA; antisense) [compound 799555] | 51
799557 (kA*kG*k[5mC]*d[5mC]*dA*dG*dT*dT*d[5mC]*dT*dT*dA*dG*kA*kA*kA; antisense) [compound 799557] | 28
799558 (k[5mC]*kT*kT*d[5mC]*dT*dA*dT*dT*d[5mC]*dG*dA*dG*d[5mC]*kT*kG*k[5mC]; antisense) [compound 799558] | 47
799559 (kA*kG*k[5mC]*dT*dT*d[5mC]*dT*dA*dT*dT*d[5mC]*dG*dA*kG*k[5mC]*kT; antisense) [compound 799559] | 37
799560 (kG*kG*k[5mC]*dA*d[5mC]*dA*dG*d[5mC]*dT*dT*d[5mC]*dT*dA*kT*kT*k[5mC]; antisense) [compound 799560] | 18
799561 (kG*kG*kA*dA*dT*dG*dA*dA*d[5mC]*dT*dT*dT*dG*k[5mC]*k[5mC]*kT; antisense) [compound 799561] | 45
799562 (kG*kA*kA*dG*dA*dG*dG*dA*dG*dA*dG*d[5mC]*d[5mC]*kG*kG*kG; antisense) [compound 799562] | 39
799574 (k[5mC]*kA*kT*dT*d[5mC]*dA*dG*dG*dG*dT*dT*dT*dA*kA*kA*kA; antisense) [compound 799574] | 7
799575 (k[5mC]*kA*k[5mC]*dA*dT*dT*d[5mC]*dA*dG*dG*dG*dT*dT*kT*kA*kA; antisense) [compound 799575] | 38
799576 (kG*kA*kA*dA*dG*dG*dA*d[5mC]*d[5mC]*d[5mC]*dT*dT*dT*k[5mC]*kA*kA; antisense) [compound 799576] | 25
799578 (kA*k[5mC]*k[5mC]*dT*dT*d[5mC]*d[5mC]*dG*dA*dA*dA*dG*dG*kA*k[5mC]*k[5mC]; antisense) [compound 799578] | 76
799579 (kA*kA*k[5mC]*d[5mC]*dT*dT*d[5mC]*d[5mC]*dG*dA*dA*dA*dG*kG*kA*k[5mC]; antisense) [compound 799579] | 51
799580 (kA*kA*kA*d[5mC]*d[5mC]*dT*dT*d[5mC]*d[5mC]*dG*dA*dA*dA*kG*kG*kA; antisense) [compound 799580] | 33
799581 (k[5mC]*kA*kA*dA*d[5mC]*d[5mC]*dT*dT*d[5mC]*d[5mC]*dG*dA*dA*kA*kG*kG; antisense) [compound 799581] | 0
799582 (kA*k[5mC]*kA*dA*dA*d[5mC]*d[5mC]*dT*dT*d[5mC]*d[5mC]*dG*dA*kA*kA*kG; antisense) [compound 799582] | 19
799593 (kG*kA*kA*dG*dG*dA*dG*d[5mC]*dT*d[5mC]*dA*dA*dA*k[5mC]*kT*kT; antisense) [compound 799593] | 0
799594 (kT*kG*kA*dA*d[5mC]*dG*dG*dA*dA*dA*dG*dA*dA*kG*kA*kA; antisense) [compound 799594] | 35
799595 (k[5mC]*kT*k[5mC]*dT*dG*dA*dA*d[5mC]*dG*dG*dA*dA*dA*kG*kA*kA; antisense) [compound 799595] | 35
799597 (kA*kA*k[5mC]*dT*d[5mC]*dT*dG*dA*dA*d[5mC]*dG*dG*dA*kA*kA*kG; antisense) [compound 799597] | 46
799598 (k[5mC]*kA*kA*d[5mC]*dT*d[5mC]*dT*dG*dA*dA*d[5mC]*dG*dG*kA*kA*kA; antisense) [compound 799598] | 39
